We go through 2 compounds from publication PMC8541353, “A Novel Phenylpyrrolidine Derivative: Synthesis and Effect on Cognitive Functions in Rats with Experimental Ishemic Stroke” (Molecules, 2021).

“And” between values parts separate entries of the source, which are not always exact repeats. Identical values can stand only once. Like-named read-outs stand apart in the source and are kept apart here.

Series [1] can be described thus: Concentration of compound 1 in plasma, striatum and cortex by HPLC-MS (intact and MCAO rats). The class given is in vivo. The following applies: for concentration at 60 min: rat. As to the method: The calculated data are consistent with the experimental data in intact animals. The concentration of compound 1 was determined in the striatum and frontal cortex by HPLC MS. Sixty minutes after the intravenous administration of compound 1, we anesthetized the rats with isoflurane. Afterward, we drained the blood from the heart, opened the chest, dissected the heart muscle, incised the left atrial appendage, and inserted an 18G needle into the right atrium. The pulmonary circulation was washed with 350 mL of 0.9% NaCl containing 1.0 mL of heparin. After the washing procedure, the rat was decapitated and the brain was removed and dissected. We determined the concentrations of compound 1 using an HPLC MS system. The concentration of compound 1 in plasma and the striatum differed by 650 times, and the concentration in plasma and the cortex differed by 630 times (Table 6).
Brain. A brain sample weighing 50 mg (± 2 mg) was placed in 2 mL tubes and 10 μL of an aqueous solution of an internal standard with a concentration of 1 μg mL^−1 was added, then 140 μL of a 1% aqueous solution of formic acid was added and homogenized. Brain samples were ground in a Precellys Evolution homogenizer using 2 mL tubes with ceramic balls at room temperature at a speed of 4500 vibrations min^−1 for 2 cycles of 90 s. After that, 400 μL of chloroform was added. The sample was shaken and centrifuged at 10,621 g for 2 min. The aqueous layer of the liquid was taken and 400 μL of chloroform was added. The sample was shaken and centrifuged at 10,621 g for 2 min. The supernatant was taken for analysis.
Plasma. A total of 10 μL of an aqueous solution of an internal standard with a concentration of 1 mg mL^−1 was added to 50 μL of plasma. A total of10 μL of formic acid and 150 μL of a 0.2% solution of formic acid in methanol was added to the solution. A total of 780 μL of deionized water was added to the resulting solution. The solution was centrifuged at 10,621 g for 2 min. The supernatant was collected and analyzed.
Analyses were performed by a Shimadzu 20 (Shimadzu, Kyoto, Japan) system consisting of HPLC coupled to triple quadrupole mass spectrometer Shimadzu 8040 (Shimadzu, Japan). The chromatographic separation was performed on Discovery C18 column 3 × 150 mm, 5 μm in a gradient mode with mobile phase components A (0.01M ammonium acetate in water) and B (acetonitrile). The gradient cycle was performed in the following way: 0–6 min 5–40% B, 6.01–10 min 40–95%, 10.01–15 min, isocratic elution with 100% B, and then returned to the initial condition. The column temperature was 60 °C. The sample injection volume was 20 μL. The autosampler temperature was 8 °C.
The electrospray ionization (ESI) source was set in positive ionization mode. Multiple reaction monitoring was used to perform mass spectrometric quantification. MS conditions: interface voltage 3,500 V ([…]), nebulizer gas (nitrogen) flow 2.5 l min^−1, drying gas (nitrogen) flow 15 L min^−1, CID gas pressure 230 kPa, DL temperature 200 °C, and heat block temperature 500 °C. High-purity argon was used as collision gas. The precursor and product ions (m/z) of target analytes were 327.10 and 174.10 for compound 1 and 236.10 and 154.15 for internal standard; collision energy was −20 V for both compounds.

Series [2] deals with patients with cerebral ischemia-induced short-term memory/cognitive deterioration. Conditions: after piracetam; cited from earlier work.

With `O=C(CN1CC(c2ccccc2)CC1=O)NCCS(=O)(=O)[O-].[K+]` (stereo not shown) [Compound 1, potassium 2-[2-(2-oxo-4-phenylpyrrolidin-1-yl)acetamido]ethane-1-sulfonate], the “Increase of BBB permeability after MCAO” value in series [1] (24 h after MCAO vs intact animals) is reported as approximately 10 fold. Further, the “Concentration in the brain” value in series [1] (intact animals) stood at 0.3 μg g^–1. Further, the Cplasma/Ccortex in series [1] (intact animals) was 630 and 630.9 ± 98.6; in series [1] (rats 24 h after MCAO), 37.9 ± 6.0. In addition, the Cplasma/Cstriatum in series [1] (intact animals) is 650 and 651.2 ± 52.0; in series [1] (rats 24 h after MCAO) it was 89.7 ± 9.4. The concentration at 60 min stood at 300 ng/g in series [1] (brain, intravenous, intact animals, read-out: Concentration in the brain); 2600 ng/g in series [1] (brain, intravenous, rats with hemispheric stroke (24 h after MCAO), read-out: Concentration in the brain); 255000 ± 78200 ng/g in series [1] (cortex, iv, intact animals, 60 min after intravenous administration, read-out: Ccortex); 13800 ± 3600 ng/mL in series [1] (plasma, intravenous, rats 24 h after MCAO, read-out: Cplasma); 16100 ± 5800 ng/mL in series [1] (plasma, iv, intact animals, 60 min after intravenous administration, read-out: Cplasma); 247000 ± 42600 ng/g in series [1] (striatum, iv, intact animals, 60 min after intravenous administration, read-out: Cstriatum).
Regarding `NC(=O)CN1CCCC1=O` [Piracetam, reference compound], the “Patients who improved their memory and cognitive functions” value in series [2] is recorded as “around 25%”.
